The supplement of paper PMC12592484

How the values were obtained:
Assay in all cases: drug sensitivity score (DSS2, normalised partial AUC of dose-response, 72 h CellTiter-Glo viability) (DSS (dimensionless)); higher = more sensitive (stronger growth inhibition / cytotoxicity); extreme values may be limits of the assay
[1] = system: CAF#6 (primary prostate cancer-associated fibroblasts of iCAF-like type)
Outline: (§1)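 The drug sensitivity score reported here is a partial area under the fitted logistic dose–response curve, divided by the log of the curve's upper asymptote and computed in BREEZE; higher values denote greater sensitivity. Low-passage primary prostate cancer-associated fibroblasts, PF179T, WPMY-1, LNCaP and 22Rv1 cells were seeded into 384-well plates preloaded with compounds at five doses across a 10,000-fold range. CellTiter-Glo 2.0 luminescence gave viability at 72 h, scaled to vehicle and positive-control wells.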

[2] = system: WPMY-1
Outline: as §1

[3] = system: CAF#4 (primary prostate cancer-associated fibroblasts of iCAF-like type)
Outline: as §1

[4] = system: CAF#5 (primary prostate cancer-associated fibroblasts of myCAF-like type)
Outline: as §1

[5] = system: CAF#7 (primary prostate cancer-associated fibroblasts of myCAF-like type)
Outline: as §1

[6] = system: PF179T
Outline: as §1

[7] = system: LNCAP
Outline: as §1

[8] = system: CAF#2 (primary prostate cancer-associated fibroblasts of iCAF-like type)
Outline: as §1

[9] = system: CAF#1 (primary prostate cancer-associated fibroblasts of myCAF-like type)
Outline: as §1

[10] = system: CAF#3 (primary prostate cancer-associated fibroblasts of myCAF-like type)
Outline: as §1

[11] = system: 22Rv1
Outline: as §1

| SMILES | drug sensitivity score [1] | drug sensitivity score [2] | drug sensitivity score [3] | drug sensitivity score [4] | drug sensitivity score [5] | drug sensitivity score [6] | drug sensitivity score [7] | drug sensitivity score [8] | drug sensitivity score [9] | drug sensitivity score [10] | drug sensitivity score [11] |
| --- | --- | --- | --- | --- | --- | --- | --- | --- | --- | --- | --- |
| COc1cc(OC)cc(N(CCNC(C)C)c2ccc3ncc(-c4cnn(C)c4)nc3c2)c1 [Erdafitinib] (tested concentration range 0.1-1000 nM) | 8 | 0 | 8.8 | 2.7 | 15 | 7.2 | 0 | 4.8 | 5.9 | 6.2 | 0 |
| Cc1c2oc3c(C)ccc(C(=O)N[C@@H]4C(=O)N[C@H](C(C)C)C(=O)N5CCC[C@H]5C(=O)N(C)CC(=O)N(C)[C@@H](C(C)C)C(=O)O[C@@H]4C)c3nc-2c(C(=O)N[C@@H]2C(=O)N[C@H](C(C)C)C(=O)N3CCC[C@H]3C(=O)N(C)CC(=O)N(C)[C@@H](C(C)C)C(=O)O[C@@H]2C)c(N)c1=O [Dactinomycin] (tested concentration range 0.1-1000 nM) | 19.8 | 26.5 | 17.2 | 21.1 | 22.6 | 17.2 | 39.3 | 23.2 | 24.7 | 23 | 31.8 |
| CO[C@@]12[C@H](COC(N)=O)C3=C(C(=O)C(C)=C(N)C3=O)N1C[C@@H]1N[C@@H]12 [Mitomycin C] (tested concentration range 1-10000 nM) | 0 | 0 | 0 | 0 | 0 | 0 | 0.7 | 0.1 | 0 | 0 | 0 |
| Nc1ccccc1NC(=O)c1ccc(CNC(=O)OCc2cccnc2)cc1 [Entinostat] (tested concentration range 1-10000 nM) | 2.2 | 8.5 | 4.8 | 7.4 | 3.5 | 8.1 | 11.6 | 8.5 | 5 | 2.4 | 10.2 |
| CN[C@@H](C)C(=O)N[C@H](C(=O)N1CCC[C@H]1c1nc(C(=O)c2ccc(F)cc2)cs1)C1CCCCC1 [NVP-LCL161] (tested concentration range 2.5-25000 nM) | 1.9 | 3 | 0.3 | 0 | 2 | 0 | 3.7 | 0.4 | 0 | 1.2 | 3.4 |
| Nc1ncnc2c1nc(Cl)n2[C@@H]1O[C@H](CO)[C@@H](O)[C@H]1O [8-chloro-adenosine] (tested concentration range 5-50000 nM) | 2.5 | 15.7 | 9.6 | 6.5 | 2 | 9.1 | 15.1 | 8.4 | 7.4 | 3.4 | 15 |
| Nc1nc2cc(-c3ccc4ncc(C(=O)N5CCOCC5)n4c3)ccc2o1 [Serabelisib] (tested concentration range 1-10000 nM) | 4.5 | 1.2 | 2.1 | 5.7 | 3.4 | 2.8 | 2.3 | 4.3 | 3.2 | 4.2 | 5.2 |
| NC(=S)N/N=C/c1ncccc1N [Triapine] (tested concentration range 1-10000 nM) | 1 | 4.9 | 0 | 1.3 | 0.8 | 2.2 | 3.2 | 3.3 | 0 | 0.6 | 4 |
| O=S(=O)(c1cccc2c(O)nccc12)N1CCCNCC1 [Hydroxyfasudil] (tested concentration range 1.9-19000 nM) | 0 | 0.3 | 0 | 0 | 0 | 0 | 0 | 0 | 0 | 0 | 0 |
| Cn1cc(C2=C(c3cn(C4CCN(Cc5ccccn5)CC4)c4ccccc34)C(=O)NC2=O)c2ccccc21 [Enzastaurin] (tested concentration range 1-10000 nM) | 1.1 | 5.2 | 1.1 | 0 | 0 | 2.3 | 4.7 | 2.1 | 0 | 0 | 4.2 |
| CN(C)Cc1ccc(S(=O)(=O)n2ccc(/C=C/C(=O)NO)c2)cc1 [Resminostat] (tested concentration range 1-10000 nM) | 5.9 | 13.6 | 6 | 4.6 | 4.7 | 6 | 12.2 | 5.9 | 4.4 | 6 | 12.3 |
| CC(C)c1cc(C(=O)N2Cc3ccc(CN4CCN(C)CC4)cc3C2)c(O)cc1O [Onalespib] (tested concentration range 0.2-2500 nM) | 10.5 | 21.1 | 7.8 | 8.6 | 11.2 | 11.6 | 18.2 | 12.1 | 10 | 11.8 | 18 |
